Experimental data as given in US20100249419A1, “UTILIZATION OF NOVEL COMPOUNDS WITH AMYLOID AFFINITY AND METHOD OF PRODUCING THE SAME” (NIHON MEDI-PHYSICS CO., LTD., priority 2007, published 2010).

Assay: Radioactive distribution ratio in each organ
Format: in vivo, SD rat
Method: In order to confirm that a compound of the present invention can be distributed in a target organ and has good clearance to the outside of the body, Compound 1 was used to measure a time-course change of radioactive accumulation to each organ in SD rat (8 weeks).
A solution of Compound 1 prepared in Example 3 in diethylether was diluted with a 10 mg/mL ascorbic acid-containing physiological saline solution (Example 10) and adjusted to 8-12 MBq/mL in radioactive concentration. 0.05 mL each of the prepared sample solution was administered under thiopental anesthesia into the tail vein of the above rat. The rats were sacrificed by bleeding from abdominal artery, and each organ shown in Table 11 was removed 5, 30, 60 and 180 minutes after the administration. Each removed organ was subjected to measurement of mass and radioactivity with the same method as in Example 10. Also, radioactivity of the whole body of the rat after removal of the organs (hereinafter referred to as rest of the whole body) was measured. Using these measurement results, radioactive distribution per unit weight of each organ (% ID/g) at the respective time points was calculated in accordance with the following formula (7).
Three animals were used for the experiment at the respective time points.
[formula] • R^T: Radioactivity of target organ (cpm) • R^S: Sum of radioactivity of all the organs (cpm) • R^R: Radioactivity of the rest of the whole body (cpm) • M^T: Mass of target organ (g)

Radioactive distribution per unit weight of organ, Average (Adrenal gland, 5 min. after administration): 2.471 % ID/g
Radioactive distribution per unit weight of organ, Average (Adrenal gland, 30 min. after administration): 0.199 % ID/g
Radioactive distribution per unit weight of organ, Average (Adrenal gland, 60 min. after administration): 0.068 % ID/g
Radioactive distribution per unit weight of organ, Average (Adrenal gland, 180 min. after administration): 0.052 % ID/g
Radioactive distribution per unit weight of organ, Average (Blood, 5 min. after administration): 0.420 % ID/g
Radioactive distribution per unit weight of organ, Average (Blood, 30 min. after administration): 0.129 % ID/g
Radioactive distribution per unit weight of organ, Average (Blood, 60 min. after administration): 0.101 % ID/g
Radioactive distribution per unit weight of organ, Average (Blood, 180 min. after administration): 0.068 % ID/g
Radioactive distribution per unit weight of organ, Average (Bone, 5 min. after administration): 0.282 % ID/g
Radioactive distribution per unit weight of organ, Average (Bone, 30 min. after administration): 0.066 % ID/g
Radioactive distribution per unit weight of organ, Average (Bone, 60 min. after administration): 0.047 % ID/g
Radioactive distribution per unit weight of organ, Average (Bone, 180 min. after administration): 0.032 % ID/g
Radioactive distribution per unit weight of organ, Average (Brain, 5 min. after administration): 0.755 % ID/g
Radioactive distribution per unit weight of organ, Average (Brain, 30 min. after administration): 0.049 % ID/g
Radioactive distribution per unit weight of organ, Average (Brain, 60 min. after administration): 0.014 % ID/g
Radioactive distribution per unit weight of organ, Average (Brain, 180 min. after administration): 0.005 % ID/g
Radioactive distribution per unit weight of organ, Average (Heart, 5 min. after administration): 0.582 % ID/g
Radioactive distribution per unit weight of organ, Average (Heart, 30 min. after administration): 0.081 % ID/g
Radioactive distribution per unit weight of organ, Average (Heart, 60 min. after administration): 0.049 % ID/g
Radioactive distribution per unit weight of organ, Average (Heart, 180 min. after administration): 0.029 % ID/g
Radioactive distribution per unit weight of organ, Average (Kidney, 5 min. after administration): 1.212 % ID/g
Radioactive distribution per unit weight of organ, Average (Kidney, 30 min. after administration): 0.432 % ID/g
Radioactive distribution per unit weight of organ, Average (Kidney, 60 min. after administration): 0.236 % ID/g
Radioactive distribution per unit weight of organ, Average (Kidney, 180 min. after administration): 0.070 % ID/g
Radioactive distribution per unit weight of organ, Average (Large intestine, 5 min. after administration): 0.139 % ID/g
Radioactive distribution per unit weight of organ, Average (Large intestine, 30 min. after administration): 0.054 % ID/g
Radioactive distribution per unit weight of organ, Average (Large intestine, 60 min. after administration): 0.069 % ID/g
Radioactive distribution per unit weight of organ, Average (Large intestine, 180 min. after administration): 6.876 % ID/g
Radioactive distribution per unit weight of organ, Average (Liver, 5 min. after administration): 1.865 % ID/g
Radioactive distribution per unit weight of organ, Average (Liver, 30 min. after administration): 0.293 % ID/g
Radioactive distribution per unit weight of organ, Average (Liver, 60 min. after administration): 0.113 % ID/g
Radioactive distribution per unit weight of organ, Average (Liver, 180 min. after administration): 0.051 % ID/g
Radioactive distribution per unit weight of organ, Average (Lung, 5 min. after administration): 0.661 % ID/g
Radioactive distribution per unit weight of organ, Average (Lung, 30 min. after administration): 0.117 % ID/g
Radioactive distribution per unit weight of organ, Average (Lung, 60 min. after administration): 0.076 % ID/g
Radioactive distribution per unit weight of organ, Average (Lung, 180 min. after administration): 0.053 % ID/g
Radioactive distribution per unit weight of organ, Average (Marrow, 5 min. after administration): 0.921 % ID/g
Radioactive distribution per unit weight of organ, Average (Marrow, 30 min. after administration): 0.087 % ID/g
Radioactive distribution per unit weight of organ, Average (Marrow, 60 min. after administration): 0.015 % ID/g
Radioactive distribution per unit weight of organ, Average (Marrow, 180 min. after administration): 0.000 % ID/g
Radioactive distribution per unit weight of organ, Average (Muscle, 5 min. after administration): 0.372 % ID/g
Radioactive distribution per unit weight of organ, Average (Muscle, 30 min. after administration): 0.042 % ID/g
Radioactive distribution per unit weight of organ, Average (Muscle, 60 min. after administration): 0.025 % ID/g
Radioactive distribution per unit weight of organ, Average (Muscle, 180 min. after administration): 0.015 % ID/g
Radioactive distribution per unit weight of organ, Average (Pancreas, 5 min. after administration): 0.778 % ID/g
Radioactive distribution per unit weight of organ, Average (Pancreas, 30 min. after administration): 0.097 % ID/g
Radioactive distribution per unit weight of organ, Average (Pancreas, 60 min. after administration): 0.051 % ID/g
Radioactive distribution per unit weight of organ, Average (Pancreas, 180 min. after administration): 0.033 % ID/g
Excretion / clearance to the outside of the body (SD rat, tail vein administration): biliary-excreted rapidly
Radioactive distribution per unit weight of organ, Average (Small intestine, 5 min. after administration): 1.299 % ID/g
Radioactive distribution per unit weight of organ, Average (Small intestine, 30 min. after administration): 6.720 % ID/g
Radioactive distribution per unit weight of organ, Average (Small intestine, 60 min. after administration): 7.515 % ID/g
Radioactive distribution per unit weight of organ, Average (Small intestine, 180 min. after administration): 0.882 % ID/g
Radioactive distribution per unit weight of organ, Average (Spleen, 5 min. after administration): 0.508 % ID/g
Radioactive distribution per unit weight of organ, Average (Spleen, 30 min. after administration): 0.072 % ID/g
Radioactive distribution per unit weight of organ, Average (Spleen, 60 min. after administration): 0.044 % ID/g
Radioactive distribution per unit weight of organ, Average (Spleen, 180 min. after administration): 0.035 % ID/g
Radioactive distribution per unit weight of organ, Average (Stomach, 5 min. after administration): 0.492 % ID/g
Radioactive distribution per unit weight of organ, Average (Stomach, 30 min. after administration): 1.202 % ID/g
Radioactive distribution per unit weight of organ, Average (Stomach, 60 min. after administration): 0.808 % ID/g
Radioactive distribution per unit weight of organ, Average (Stomach, 180 min. after administration): 0.982 % ID/g
Ratio (% ID/g at 5 minutes after the administration)/(% ID/g at 180 minutes after the administration) (bones): 9
Ratio (% ID/g at 5 minutes after the administration)/(% ID/g at 180 minutes after the administration) (brain): 145
Ratio (% ID/g at 5 minutes after the administration)/(% ID/g at 180 minutes after the administration) (heart): 20
Ratio (% ID/g at 5 minutes after the administration)/(% ID/g at 180 minutes after the administration) (lung): 13
Ratio (% ID/g at 5 minutes after the administration)/(% ID/g at 180 minutes after the administration) (pancreas): 24
Substance: 2-[4′-(2″-hydroxyethoxy)phenyl]-6-[^123I]iodoimidazo[1,2-a]pyridine [Compound 1]
